Reference: PMC6337485, “Olive Biophenols Reduces Alzheimer’s Pathology in SH-SY5Y Cells and APPswe Mice” (International Journal of Molecular Sciences, 2018)
Like-named read-outs stand apart in the source and are kept apart here.

Key:
[1] = target: T1, Aβ42 fibrils (Homo sapiens, UniProt P05067); assay: Congo red binding assay, Aβ42 fibril inhibition; assay type: biochemical; conditions: for Congo-Red Assay % Inhibition: highest concentration, 1000 µM standard
[2] = target: T1, Aβ42 fibrils; assay: Thioflavin-T (ThT) fluorometric assay, Aβ42 fibril inhibition; assay type: biochemical; conditions: for Thioflavin-T Assay % Inhibition: highest concentration, 1000 µM standard
[3] = tested on: SH-SY5Y cells
[4] = tested on: SH-SY5Y cells; assay: Aβ42 induced SH-SY5Y cells toxicity and olive biophenols treatment (MTT viability); conditions: 1000 µM standard, 24 h pre-incubation, then 25 µM Aβ42 for 24 h
[5] = tested on: SH-SY5Y cells; remark: listed apart in the source
[6] = target: T1, Aβ42 fibrils; assay: Transmission electron microscope (TEM) imaging of Aβ42 fibrils with olive biophenols; assay type: biochemical; conditions: biophenol ≥200 µM, 20 µM Aβ42 fibrils, 24 h, 37 °C
Protocol: Ten µL aliquot of each sample was spotted onto a glow-discharged, carbon-coated formvar grid and incubated for 30 min. The droplet then was displaced with an equal volume of 2.5% glutaraldehyde (v/v) and incubated for an additional 5 min. Finally, the grid was stained with 10 μL of 3% 0.22 µm filtered uranyl acetate (v/v) twice, and the solution was gently wicked off using Whatman’s grade-1 qualitative filter paper and the grid was then air-dried. Samples were examined by using a Hitachi H7100FA TEM (Hitachi, Japan) at the Centre for Advanced Microscopy, Australian National University, Canberra. All the images were captured at a voltage of 125 kV and an instrumental magnification of 2000×.

[7] = tested on: BACE-1 enzyme; set-up: method as in PMID 29772299; conditions: among olive biophenols; cited from earlier work
[8] = tested on: SH-SY5Y cells; set-up: method as in PMID 29109370; conditions: cited from earlier work
[9] = tested on: SH-SY5Y cells; conditions: human, 1000 µM
[10] = tested on: SH-SY5Y cells; conditions: human, 1000 µM; remark: listed apart in the source
[11] = standard biophenols 10–1000 µM, pre-formed Aβ42 fibril, 2 h, room temperature
[12] = 1000 µM standard, 24 h pre-incubation, then 25 µM Aβ42 and 200 µM L-DOPA for 24 h
[13] = 1000 µM standard, 24 h pre-incubation, then 25 µM Aβ42 and 200 µM copper for 24 h

T1 sequence (P05067 672-713 limits assumed): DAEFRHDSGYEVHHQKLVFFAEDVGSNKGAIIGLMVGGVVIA

SMILES	Congo-Red Assay % Inhibition [1] [%]	IC50 ([1]; standard biophenols 10–1000 µM, pre-formed Aβ42 fibril, 2 h, room temperature, read-out: Congo-Red Assay IC50) [µM]	Thioflavin-T Assay % Inhibition [2] [%]	IC50 [2, 11] [µM]	Aβ-L-DOPA-SH-SY5Y Toxicity % Viability [3, 12] [%]	IC50 ([1]; read-out: Congo-Red Assay IC50) [µM]	IC50 [2] [µM]	Aβ-SH-SY5Y Toxicity % Viability [4] [%]	Aβ-Cu-SH-SY5Y Toxicity % Viability [5, 13] [%]	Effect on formed Aβ42 fibrils (TEM) [6]	BACE-1 enzyme inhibition [7]	IC50 [1] [µM]	Protection of SH-SY5Y cells against Cu-induced toxicity [8]	Aβ-Cu-SH-SY5Y Toxicity % Viability ([5]; human, SH-SY5Y neuroblastoma cells, 1000 µM) [%]	Aβ-L-DOPA-SH-SY5Y Toxicity % Viability ([3]; human, 1000 µM) [%]	Aβ-SH-SY5Y Toxicity % Viability [9] [%]	Aβ-Cu-SH-SY5Y Toxicity % Viability [10] [%]	Congo-Red Assay IC50 [1, 11]	Thioflavin-T Assay IC50 [2, 11]
CC(Cc1ccc(O)c(O)c1)C(C)Cc1ccc(O)c(O)c1 (stereo not shown) [Nordihroguaretic acid (NDGA), Nordihydroguaiaretic acid, reference compound]	69 ± 0.4	14.4	70 ± 0.5	15.4	–	–	–	–	–	–	–	–	–	–	–	–	–	–	–
C/C=C1/[C@H](O[C@@H]2O[C@H](CO)[C@@H](O)[C@H](O)[C@H]2O)OC=C(C(=O)OC)[C@H]1CC(=O)OCCc1ccc(O)c(O)c1 [Oleuropein (OL), Oleuropein]	65 ± 0.3	–	61 ± 0.33	–	74 ± 0.23	36.5	22.9	68 ± 0.69	76 ± 1.61	significant reduction in both the size and number of fibrils	strongest inhibitor	–	–	–	–	–	–	–	–
O=c1cc(-c2ccc(O)c(O)c2)oc2cc(O)cc(O)c12 [Luteolin (LU), Luteolin]	61 ± 0.33	–	64 ± 0.4	–	69 ± 0.87	46.3	36.9	65 ± 0.39	67 ± 0.52	–	–	–	–	–	–	–	–	–	–
O=c1c(O)c(-c2ccc(O)c(O)c2)oc2cc(O)cc(O)c12 [Quercetin (QU), Quercetin]	55 ± 0.71	–	57 ± 0.34	–	–	–	45.9	–	–	moderate reduction in fibril formation	–	73.8	rescue SH-SY5Y cells	60 ± 0.52	–	–	–	–	–
C[C@@H]1O[C@@H](O[C@@H]2[C@@H](O)[C@H](OCCc3ccc(O)c(O)c3)O[C@H](CO)[C@H]2OC(=O)/C=C/c2ccc(O)c(O)c2)[C@H](O)[C@H](O)[C@H]1O [Verbascoside (VB), Verbascoside]	57 ± 0.51	–	61 ± 0.35	–	–	59.6	22.6	–	–	–	strongest inhibitor	–	rescue SH-SY5Y cells	–	69 ± 0.66	66 ± 1.11	70 ± 0.48	–	–
C[C@@H]1O[C@@H](OC[C@H]2O[C@@H](Oc3c(-c4ccc(O)c(O)c4)oc4cc(O)cc(O)c4c3=O)[C@H](O)[C@@H](O)[C@@H]2O)[C@H](O)[C@H](O)[C@H]1O [Rutin (RU), Rutin]	48 ± 0.33	–	49 ± 0.25	–	57 ± 0.85	–	–	59 ± 0.59	54 ± 0.71	–	–	–	–	–	–	–	–	unable to achieve IC50 value	unable to reach the IC50 concentration
O=C(O)/C=C/c1ccc(O)c(O)c1 [Caffeic acid (CA), Caffeic acid]	–	–	–	–	67 ± 0.43	–	–	62 ± 0.53	62 ± 0.93	–	–	–	–	–	–	–	–	unable to achieve IC50 value	unable to achieve IC50 value
OCCc1ccc(O)c(O)c1 [Hydroxytyrosol (HT), Hydroxytyrosol]	50 ± 0.4	–	45 ± 0.47	–	64 ± 1.02	97.8	–	60 ± 1.00	60 ± 0.84	–	–	–	–	–	–	–	–	–	unable to achieve IC50 value
